{
  "source": "patent US20230087140A1",
  "about": "“TREATMENT OF PAIN ASSOCIATED WITH CESAREAN SECTION SURGERY WITH SUSTAINED-RELEASE LIPOSOMAL ANESTHETIC COMPOSITIONS” (Pacira Pharmaceuticals, Inc., priority 2020, published 2023)",
  "key": {"[1]": {"tested_on": "patients undergoing elective cesarean delivery", "assay": "Randomized double-blind clinical trial, efficacy of TAP block after cesarean delivery (opioid consumption, VAS pain)", "type": "in vivo, human", "settings": "mITT"}, "[2]": {"tested_on": "patients undergoing elective cesarean delivery", "assay": "Clinical trial safety: treatment-emergent adverse events through day 14 (safety analysis set)"}, "[3]": {"settings": "cited from earlier work"}, "[4]": {"settings": "TEAEs occurring in >5% of patients in either group"}, "[5]": {"settings": "safety analysis set, through day 14"}, "[6]": {"settings": "treatment-relatedness determined by the investigator"}},
  "note": "Structures can show the parent of a compound that is named as a salt.",
  "data": [
    {"smiles": "CCCCN1CCCCC1C(=O)Nc1c(C)cccc1C", "note": "(centres unmarked) [BUPI HCl alone, bupivacaine hydrochloride]", "values": [
      {"measurement": "percentage of opioid-free patients at 24 hours", "setting": "[1]; 24 hours", "value": 93.7, "unit": "%"},
      {"measurement": "percentage of opioid-free patients at 48 hours", "setting": "[1]; 48 hours", "value": 50.6, "unit": "%"},
      {"measurement": "percentage of opioid-free patients at 72 hours", "setting": "[1]; 72 hours", "value": 48.6, "unit": "%"},
      {"measurement": "percentage of opioid-spared patients at 72 hours", "setting": "[1]; 72 hours", "value": 24.7, "unit": "%"},
      {"measurement": "median time to first opioid rescue", "setting": "[1]; median", "value": 41.1, "unit": "h"},
      {"measurement": "LSM (SE) AUC0-72 of VAS pain intensity scores through 72 hours", "setting": "[1]; through 72 hours, hydrochloride", "value": "178.5 (19.78)"},
      {"measurement": "TEAE: Back pain", "setting": "[2]; [4]", "value": "5 (5.6) number (percentage)"},
      {"measurement": "TEAE: Constipation", "setting": "[2]; [4]", "value": "4 (4.5) number (percentage)"},
      {"measurement": "TEAE: Dizziness", "setting": "[2]; [4]", "value": "5 (5.6) number (percentage)"},
      {"measurement": "TEAE: Headache", "setting": "[2]; [4]", "value": "10 (11.2) number (percentage)"},
      {"measurement": "TEAE: Nausea", "setting": "[2]; [4]", "value": "11 (12.4) number (percentage)"},
      {"measurement": "TEAE: Pruritus", "setting": "[2]; [4]", "value": "28 (31.5) number (percentage)"},
      {"measurement": "TEAE: Rash", "setting": "[2]; [4]", "value": "3 (3.4) number (percentage)"},
      {"measurement": "TEAE: Vomiting", "setting": "[2]; [4]", "value": "6 (6.7) number (percentage)"},
      {"measurement": "Any TEAE", "setting": "[2]; [5]", "value": "50 (56.2) number (percentage)"},
      {"measurement": "Any treatment-related TEAE", "setting": "[2]; [5]", "value": "9 (10.1) number (percentage)"},
      {"measurement": "Fatal TEAE", "setting": "[2]; [5]", "value": "0 (0.0) number (percentage)"},
      {"measurement": "Serious TEAE", "setting": "[2]; [5]", "value": "3 (3.4) number (percentage)"},
      {"measurement": "Serious TEAEs", "setting": "[2]; summary of results", "value": "~3", "unit": "%"},
      {"measurement": "fatal TEAEs", "setting": "[2]; summary of results", "value": "no fatal TEAEs"},
      {"measurement": "patients who experienced a TEAE", "setting": "[2]; summary of results", "value": 56.2, "unit": "%"},
      {"measurement": "Treatment-related TEAE: Back pain", "setting": "[2]; [6]", "value": "1 (1.1) number (percentage)"},
      {"measurement": "Treatment-related TEAE: Dizziness", "setting": "[2]; [6]", "value": "0 (0.0) number (percentage)"},
      {"measurement": "Treatment-related TEAE: Dysuria", "setting": "[2]; [6]", "value": "1 (1.1) number (percentage)"},
      {"measurement": "Treatment-related TEAE: Nausea", "setting": "[2]; [6]", "value": "0 (0.0) number (percentage)"},
      {"measurement": "Treatment-related TEAE: Pruritus", "setting": "[2]; [6]", "value": "8 (9.0) number (percentage)"},
      {"measurement": "Treatment-related TEAE: Vomiting", "setting": "[2]; [6]", "value": "0 (0.0) number (percentage)"},
      {"measurement": "expected duration of action in spinal anesthesia", "setting": "[3]; 1.4 to 1.6 mL hyperbaric BUPI HCl 0.75%, spinal", "value": "~2", "unit": "h"},
      {"measurement": "duration of analgesia", "setting": "[3]; standard local anesthetics, TAP block background", "value": "5 to 8", "unit": "h"}
    ]}
  ]
}
